Reference: ChEMBL document CHEMBL1201862, “PubChem BioAssay data set” (2004)
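1) Cells in 96-well plates. 2) Compound, 48 h, 5 concentrations. 3) Linear interpolation between surrounding doses. 4) Unreached endpoint = highest concentration. At the GI50, growth is halved.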 Active and inactive are the calls of the source. No stated cut-off is given here; in the data, active = GI50 up to about 1.1 µM and inactive = higher.

Assays:
Experiment in all cases: NCI-60 cell line screen, 48 h
CAKI-1 = system: CAKI-1
COLO 205 = system: COLO 205
HCC 2998 = system: HCC 2998
HCT-15 = system: HCT-15
HOP-62 = system: HOP-62
HT-29 = system: HT-29
M14 = system: M14
NCI-H226 = system: NCI-H226
NCI-H522 = system: NCI-H522
OVCAR-5 = system: OVCAR-5
OVCAR-8 = system: OVCAR-8
RPMI-8226 = system: RPMI-8226
SF-295 = system: SF-295
SK-MEL-2 = system: SK-MEL-2
SN12C = system: SN12C
U-251 = system: U-251
UO-31 = system: UO-31
RXF 393 = system: RXF 393
SF-268 = system: SF-268
UACC-62 = system: UACC-62

Row | SMILES | GI50 (CAKI-1) | GI50 (COLO 205) | GI50 (HCC 2998) | GI50 (HCT-15) [µM] | GI50 (HOP-62) | GI50 (HT-29) | GI50 (M14) | GI50 (NCI-H226) | GI50 (NCI-H522) | GI50 (OVCAR-5) | GI50 (OVCAR-8) | GI50 (RPMI-8226) | GI50 (SF-295) | GI50 (SK-MEL-2) | GI50 (SN12C) | GI50 (U-251) | GI50 (UO-31) | GI50 (RXF 393) | GI50 (SF-268) | GI50 (UACC-62)
1 | CCP(=S)(CC)CCl | > 100 µM (inactive) | > 100 µM (inactive) | > 100 µM (inactive) | > 100 | > 100 µM (inactive) | > 100 µM (inactive) | > 100 µM (inactive) | > 100 µM (inactive) | > 100 µM (inactive) | > 100 µM (inactive) | > 100 µM (inactive) | > 100 µM (inactive) | > 100 µM (inactive) | > 100 µM (inactive) | > 100 µM (inactive) | > 100 µM (inactive) | > 100 µM (inactive) |  |  | 
2 | CN(C)CCNC(=O)c1cccc2nc(-c3ccccc3)oc12 |  | 17.3 µM (inactive) | 54.5 µM (inactive) | 43.6 | > 66.7 µM (inactive) | 31 µM (inactive) |  | 29.1 µM (inactive) |  | 38.5 µM (inactive) | 35.9 µM (inactive) | 34.6 µM (inactive) | 31.3 µM (inactive) | > 62.5 µM (inactive) | 41.1 µM (inactive) | 46.9 µM (inactive) | 17.4 µM (inactive) | 32.2 µM (inactive) | > 64.6 µM (inactive) | 31.5 µM (inactive)
3 | CCOC(=O)C1=NN(c2ccccc2)C2=CC(C)=NN(C)C(=S)N21 | > 100 µM (inactive) | > 100 µM (inactive) | > 100 µM (inactive) | > 100 |  | > 100 µM (inactive) | > 100 µM (inactive) |  | > 100 µM (inactive) | > 100 µM (inactive) | > 100 µM (inactive) | > 100 µM (inactive) | > 100 µM (inactive) | > 100 µM (inactive) | > 100 µM (inactive) | > 100 µM (inactive) | > 100 µM (inactive) | > 100 µM (inactive) | > 100 µM (inactive) | > 100 µM (inactive)
4 | CC(=O)OC1CC[C@@]2(C)C(=CC[C@@H]3[C@@H]2CC[C@]2(C)Nc4nn(S(C)(=O)=O)cc4C[C@@H]32)C1 (stereo partly drawn) | 40.1 µM (inactive) | 35.7 µM (inactive) | 30.4 µM (inactive) | 24.2 | 43.9 µM (inactive) | 11.6 µM (inactive) | 20.7 µM (inactive) | 27.7 µM (inactive) | 35.2 µM (inactive) | 37.9 µM (inactive) | 32.5 µM (inactive) | 30 µM (inactive) | 34 µM (inactive) | 22.3 µM (inactive) | 59.7 µM (inactive) | 36.1 µM (inactive) | 37 µM (inactive) | 18.6 µM (inactive) |  | 21.8 µM (inactive)
5 | CN1CN(C(=O)N2CN(C)C(=O)N(C)C2)CN(C)C1=O | > 100 µM (inactive) | > 100 µM (inactive) | > 100 µM (inactive) | > 100 | > 100 µM (inactive) | > 100 µM (inactive) | > 100 µM (inactive) | > 100 µM (inactive) | > 100 µM (inactive) | > 100 µM (inactive) | > 100 µM (inactive) | > 100 µM (inactive) | > 100 µM (inactive) | > 100 µM (inactive) | > 100 µM (inactive) |  | > 100 µM (inactive) |  | > 100 µM (inactive) | > 100 µM (inactive)
6 | CC(=O)OC1CC2(O)C(CCC3(C)C(c4ccc(=O)oc4)CCC32O)C2(C)CCC(O)C=C12 (stereo not drawn) | 0.0375 µM (active) | 0.0385 µM (active) | 0.0644 µM (active) | 0.0239 | 0.0375 µM (active) | 0.0239 µM (active) |  | 0.048 µM (active) | 0.00174 µM (active) | 0.104 µM (active) | 0.0152 µM (active) | 0.00993 µM (active) | 0.00955 µM (active) | 0.0177 µM (active) | 0.00462 µM (active) | 0.0169 µM (active) | 0.0297 µM (active) | 0.0375 µM (active) | 0.0375 µM (active) | 0.024 µM (active)
7 | COc1ccc(C(=O)Cc2cc(OC)ccc2OC)cc1 | > 100 µM (inactive) | > 100 µM (inactive) | > 100 µM (inactive) | > 100 | 66.1 µM (inactive) | > 100 µM (inactive) | > 100 µM (inactive) | > 100 µM (inactive) | 43.3 µM (inactive) | > 100 µM (inactive) | > 100 µM (inactive) | 75.3 µM (inactive) | 48.9 µM (inactive) | > 100 µM (inactive) | > 100 µM (inactive) | > 100 µM (inactive) | > 100 µM (inactive) | 58.9 µM (inactive) | 61.4 µM (inactive) | > 100 µM (inactive)
8 | O=C(O)C12CC3CC(C1)C2C=C3P(=O)(O)O (stereo not drawn) | > 100 µM (inactive) | > 100 µM (inactive) | > 100 µM (inactive) | > 100 | > 100 µM (inactive) | > 100 µM (inactive) | > 100 µM (inactive) | > 100 µM (inactive) | > 100 µM (inactive) | > 100 µM (inactive) | > 100 µM (inactive) | > 100 µM (inactive) | > 100 µM (inactive) | > 100 µM (inactive) | > 100 µM (inactive) | > 100 µM (inactive) | > 100 µM (inactive) | > 100 µM (inactive) | > 100 µM (inactive) | > 100 µM (inactive)
